In paper PMC6332200, “Isolation and Identification of Cytotoxic Compounds from Aeschynomene fascicularis, a Mayan Medicinal Plant” (Molecules, 2015):
pIC50: −log10 of the molar value. Values joined by “and” are separate entries in the source; they are usually repeats but may differ in a detail not shown here. Identical values can stand only once.

How the values were obtained:
Hep-2 [1] = assay: Cytotoxicity MTT assay, Hep-2 laryngeal carcinoma; format: cell-based, human; conditions: Homo sapiens; Hep-2, MTT, 72 h; read-out: Cytotoxic activity CC50
Description: (§1) Three types of cancer cell lines obtained from the American Type Culture Collection (ATCC) were cultured: two oral-laryngeal cancer cell lines, nasopharynx carcinoma (KB, ATCC-CCL-17) and laryngeal carcinoma (Hep-2, ATCC-CCL-23); two cervix-uterine cancer cell lines, cervix adenocarcinoma (HeLa, ATCC-CCL-2) and cervix squamous carcinoma (SiHa, ATCC-HTB-35); and two prostate cancer cell lines, prostate carcinoma (DU-145, ATCC-HTB-81) and prostate adenocarcinoma (PC-3, ATCC-CRL-1435); along with one normal cell line (MDCK, ATCC-CCL-34). The cells were cultured in sterile Costar T75 flasks containing DMEM (Gibco, Hong Kong, China), supplemented with fetal bovine serum (10%, v/v), 100 U/mL penicillin G, and […] streptomycin at 37 °C in an atmosphere of 5% CO2 (95% humidity). At 70%–80% confluence, cells were detached from the cultured flask by treatment with 0.05% trypsin-EDTA (Gibco), and a suspension of 5 × 10^4 cells/mL of viable cells was seeded in a 96-well microtiter plate (Costar, Washington, DC, USA) and incubated. Cytotoxicity was assessed by the MTT assay as previously described by Rahman. When cells reached 90% confluence in a microtiter plate, the DMEM was replaced with fresh medium and cells were incubated with compounds at various concentrations. […] The medium was aspirated, and the formazan product was solubilized with acidified isopropanol (0.4 N HCl). The amount of MTT-formazan is directly proportional to the number of living cells and was determined by measuring the optical density (OD) at 590 nm using a bioassay reader (Bio-Rad). All determinations were performed in triplicate. The cytotoxic and antiproliferative activities of tested compounds were calculated as the percentage of cells killed or the percentage of inhibition of cell proliferation, respectively, using the equation: growth inhibition (%) = (ODcontrol − ODsample/ODcontrol) × 100. […] In addition, the level of cytotoxicity on normal cells was evaluated by determining the selectivity index (SI) of each compound, which is calculated as the ratio of cytotoxicity or reduced cell growth on normal cells to cancer cells (SI = normal cells/cancer cells).

HeLa [2] = assay: Cytotoxicity MTT assay, HeLa cervix adenocarcinoma; format: cell-based, human; conditions: Homo sapiens; HeLa, MTT, 72 h; read-out: Cytotoxic activity CC50
Description: as §1

SiHa [3] = assay: Antiproliferative sulforhodamine B assay, SiHa; format: cell-based, human; conditions: for pIC50 / IC50: Homo sapiens, SiHa, SRB, 48 h; for Selectivity index (SI) of antiproliferative activity: IC50 MDCK normal cells / SiHa
Description: (§2) Three types of cancer cell lines obtained from the American Type Culture Collection (ATCC) were cultured: two oral-laryngeal cancer cell lines, nasopharynx carcinoma (KB, ATCC-CCL-17) and laryngeal carcinoma (Hep-2, ATCC-CCL-23); two cervix-uterine cancer cell lines, cervix adenocarcinoma (HeLa, ATCC-CCL-2) and cervix squamous carcinoma (SiHa, ATCC-HTB-35); and two prostate cancer cell lines, prostate carcinoma (DU-145, ATCC-HTB-81) and prostate adenocarcinoma (PC-3, ATCC-CRL-1435); along with one normal cell line (MDCK, ATCC-CCL-34). The cells were cultured in sterile Costar T75 flasks containing DMEM (Gibco, Hong Kong, China), supplemented with fetal bovine serum (10%, v/v), 100 U/mL penicillin G, and […] streptomycin at 37 °C in an atmosphere of 5% CO2 (95% humidity). At 70%–80% confluence, cells were detached from the cultured flask by treatment with 0.05% trypsin-EDTA (Gibco), and a suspension of 5 × 10^4 cells/mL of viable cells was seeded in a 96-well microtiter plate (Costar, Washington, DC, USA) and incubated.
(§3) The growth inhibition of cancer cells was evaluated by the sulforhodamine B method. When cells reached 70% confluence in a microtiter plate, the medium was replaced with DMEM 5% FBS and samples at various concentrations. After 48 h, the medium was discarded, and cells were fixed by adding 50 μL of 10% trichloroacetic acid (TCA, Sigma-Aldrich Chemical, St. Louis, MO, USA). The cells were then incubated at 4 °C for 30 min; TCA was drained off, and the plates were left to dry. Then, 50 μL of SRB stain (10 mg of 1% acetic acid, Sigma) were added to each well for 30 min. Finally, the plates were washed four times with 1% acetic acid (100 μL). The OD was measured at 540 nm using an ELISA reader (Bio-Rad). Docetaxel was used as a positive control, whereas cells incubated only with 0.05% of DMSO were used as a negative control. All determinations were performed in triplicate.
(§4) The cytotoxic and antiproliferative activities of tested compounds were calculated as the percentage of cells killed or the percentage of inhibition of cell proliferation, respectively, using the equation: growth inhibition (%) = (ODcontrol − ODsample/ODcontrol) × 100. […] In addition, the level of cytotoxicity on normal cells was evaluated by determining the selectivity index (SI) of each compound, which is calculated as the ratio of cytotoxicity or reduced cell growth on normal cells to cancer cells (SI = normal cells/cancer cells). It is generally considered that biological efficacy is not due to general toxicity when SI ≥ 10 [17].

KB [4] = assay: Antiproliferative sulforhodamine B assay, KB; format: cell-based, human; conditions: for pIC50 / IC50: Homo sapiens, KB, SRB, 48 h; for Selectivity index (SI) of antiproliferative activity: IC50 MDCK normal cells / KB
Description: as §2, §3, §4

[5] = Cytotoxicity MTT assay, MDCK normal cell line; format: cell-based; conditions: dog, MDCK cells (normal cell line), read-out: Cytotoxic activity CC50
Description: as §1

HeLa [6] = assay: Antiproliferative sulforhodamine B assay, HeLa; format: cell-based, human
Description: as §2, §3, §4

PC-3 [7] = assay: Antiproliferative sulforhodamine B assay, PC-3; format: cell-based; conditions: Homo sapiens; PC-3, SRB, 48 h
Description: as §2, §3, §4

SiHa [8] = assay: Cytotoxicity MTT assay, SiHa cervix squamous carcinoma; format: cell-based, human; conditions: Homo sapiens; SiHa, MTT, 72 h; read-out: Cytotoxic activity CC50
Description: as §1

PC-3 [9] = assay: Cytotoxicity MTT assay, PC-3 prostate adenocarcinoma; format: cell-based, human; conditions: Homo sapiens; PC-3, MTT, 72 h; read-out: Cytotoxic activity CC50
Description: as §1

KB [10] = assay: Cytotoxicity MTT assay, KB nasopharynx carcinoma; format: cell-based, human; conditions: Homo sapiens; KB, MTT, 72 h; read-out: Cytotoxic activity CC50
Description: as §1

tested cell lines = assay: Cytotoxicity and antiproliferative bioassays, whole panel of tested cell lines; format: cell-based; conditions: all tested cell lines
Description: as §2, with “At 70%–80% confluence, cells were detached from the cultured flask by treatment with 0.05% trypsin-EDTA (Gibco), and a suspension of 5 × 10^4 cells/mL of viable cells was seeded in a 96-well microtiter plate (Costar, Washington, DC, USA) and incubated.” left out
Cytotoxicity was assessed by the MTT assay as previously described by Rahman. […] The amount of MTT-formazan is directly proportional to the number of living cells and was determined by measuring the optical density (OD) at 590 nm using a bioassay reader (Bio-Rad). […]
The growth inhibition of cancer cells was evaluated by the sulforhodamine B method. […] The OD was measured at 540 nm using an ELISA reader (Bio-Rad). […]

DU-145 [11] = assay: Antiproliferative sulforhodamine B assay, DU-145; format: cell-based, human
Description: as §2, §3, §4

MDCK = assay: Antiproliferative sulforhodamine B assay, MDCK normal cell line; format: cell-based; conditions: Canis lupus familiaris, SRB, 48 h
Description: as §2, §3, §4

DU-145 [12] = assay: Cytotoxicity MTT assay, DU-145 prostate carcinoma; format: cell-based, human; conditions: Homo sapiens; DU-145, MTT, 72 h; read-out: Cytotoxic activity CC50
Description: as §1

Hep-2 [13] = assay: Antiproliferative sulforhodamine B assay, Hep-2; format: cell-based, human
Description: as §2, §3, §4

[14] = Cytotoxicity MTT assay, PC-3 prostate adenocarcinoma; format: cell-based, human; conditions: human, MDCK normal cells versus PC-3 prostate adenocarcinoma cells; CC50 MDCK normal cells / PC-3; read-out: Selectivity index (SI) of cytotoxic activity
Description: as §1

[15] = Cytotoxicity MTT assay, DU-145 prostate carcinoma; format: cell-based, human; conditions: human, MDCK normal cells versus DU-145 prostate carcinoma cells; CC50 MDCK normal cells / DU-145; read-out: Selectivity index (SI) of cytotoxic activity
Description: as §1

[16] = Cytotoxicity MTT assay, Hep-2 laryngeal carcinoma; format: cell-based, human; conditions: dog MDCK normal cells versus Hep-2 laryngeal carcinoma cells; CC50 MDCK normal cells / Hep-2; read-out: Selectivity index (SI) of cytotoxic activity
Description: as §1

[17] = Cytotoxicity MTT assay, HeLa cervix adenocarcinoma; format: cell-based, human; conditions: human, MDCK normal cells versus HeLa cervix adenocarcinoma cells; CC50 MDCK normal cells / HeLa; read-out: Selectivity index (SI) of cytotoxic activity
Description: as §1

[18] = Cytotoxicity MTT assay, SiHa cervix squamous carcinoma; format: cell-based, human; conditions: human; CC50 MDCK normal cells / SiHa; read-out: Selectivity index (SI) of cytotoxic activity
Description: as §1

[19] = Cytotoxicity MTT assay, KB nasopharynx carcinoma; format: cell-based, human; conditions: human, MDCK normal cells versus KB nasopharynx carcinoma cells; CC50 MDCK normal cells / KB; read-out: Selectivity index (SI) of cytotoxic activity
Description: as §1

[20] = Homo sapiens, DU-145, SRB, 48 h

pIC50 (KB [4])	pIC50 (HeLa [6]; Homo sapiens, HeLa, SRB, 48 h)	pIC50 (PC-3 [7])	pIC50 (DU-145 [11]; [20])	IC50 (KB [4])	IC50 (HeLa [6]; Homo sapiens, HeLa, SRB, 48 h)	IC50 (PC-3 [7])	IC50 (DU-145 [11]; [20])	SMILES	CC50 (Hep-2 [1])	CC50 (HeLa [2])	pIC50 (SiHa [3])	CC50 at 72 h [5]	CC50 (SiHa [8])	CC50 (PC-3 [9])	CC50 (KB [10])	pIC50 (MDCK)	CC50 (DU-145 [12])	pIC50 (Hep-2 [13]; Homo sapiens, Hep-2, SRB, 48 h)	Selectivity index (SI) of antiproliferative activity (KB [4])	selectivity ratio at 72 h [14]	IC50 (MDCK)	selectivity ratio at 72 h [15]	selectivity ratio at 72 h [16]	selectivity ratio at 72 h [17]	IC50 (SiHa [3])	Selectivity index (SI) of antiproliferative activity (SiHa [3])	IC50 (Hep-2 [13]; Homo sapiens, Hep-2, SRB, 48 h)	further results
< 4.00	< 4.00	< 4.00	< 4.00					CC(C)=CCc1c(O)c(C(=O)/C=C/c2ccccc2)cc2c1OC(C)(C)C=C2 [Compound 1, spinochalcone C]	> 100 µg/mL	> 100 µg/mL	< 4.00	> 100 µg/mL	> 100 µg/mL	> 100 µg/mL	> 100 µg/mL	< 4.00	> 100 µg/mL	< 4.00										Active concentration on tested cell lines (no activity to the maximum concentration) (tested cell lines): > 100 µM
	< 4.00	< 4.00	< 4.00	6 µg/mL and 16 µM				CC(C)=CCc1cc(C(=O)/C=C/c2ccccc2)c(O)c(CC=C(C)C)c1O [Compound 2, spinochalcone A]	> 100 µg/mL	> 100 µg/mL	< 4.00	92.1 µg/mL and 245 µM	> 100 µg/mL	9.7 µg/mL and 26 µM	> 100 µg/mL		6.1 µg/mL and 16.3 µM	< 4.00	3.1	9.4	18.7 µg/mL and 50 µM	15						
< 4.00	< 4.00	< 4.00	< 4.00					C=CC(C)(C)c1cc(C2COc3cc(O)ccc3C2)c(O)c(O)c1OC (stereo not drawn) [Compound 4, secundiflorol G]	3.9 µg/mL and 11 µM	8.1 µg/mL and 23 µM		29.7 µg/mL and 83.4 µM	14.7 µg/mL and 41.3 µM	16.5 µg/mL and 46.4 µM	5.3 µg/mL and 15 µM		21.5 µg/mL and 60.6 µM	< 4.00		1.8	25.4 µg/mL and 72 µM	1.3	7.6	3.6	21.2 µg/mL and 60 µM	1.2		selectivity ratio at 72 h [18]: 2; selectivity ratio at 72 h [19]: 5.5
				0.04 µg/mL and 60 nM	0.03 µg/mL and 40 nM	0.007 µg/mL and 10 nM	0.01 µg/mL and 20 nM	CC(=O)O[C@@]12CO[C@@H]1C[C@H](O)[C@@]1(C)C(=O)[C@H](O)C3=C(C)[C@@H](OC(=O)[C@H](O)[C@@H](NC(=O)OC(C)(C)C)c4ccccc4)C[C@@](O)([C@@H](OC(=O)c4ccccc4)[C@H]21)C3(C)C [Docetaxel, reference compound]	0.07 µg/mL and 100 nM	0.19 µg/mL and 250 nM		1.1 µg/mL and 1.4 µM	0.17 µg/mL and 220 nM	0.07 µg/mL and 100 nM	0.2 µg/mL and 300 nM		0.007 µg/mL and 10 nM		2.3	14	0.11 µg/mL and 140 nM	140	14	5.6	0.07 µg/mL and 100 nM	1.4	0.05 µg/mL and 70 nM	Selectivity index (SI) of antiproliferative activity (HeLa [6]; IC50 MDCK normal cells / HeLa): 3.5; selectivity ratio at 72 h [18]: 6.3; selectivity ratio at 72 h [19]: 4.6; Selectivity index (SI) of antiproliferative activity (DU-145 [11]; IC50 MDCK normal cells / DU-145): 7; Selectivity index (SI) of antiproliferative activity (Hep-2 [13]; IC50 MDCK normal cells / Hep-2): 2.0
